Here are results for 22 molecules from patent US20240124412A1, “IKAROS ZINC FINGER FAMILY DEGRADERS AND USES THEREOF” (Gilead Sciences, Inc., priority 2021, published 2024).

Assay [1] has as its target T1, IKZF1 (Homo sapiens, UniProt Q13422+Q96SW2).
T1 construct: expressed in transfected cells
The assay can be described thus: HiBiT protein tagging assay, in vitro IKZF1 degradation (HEK293). Format: cell-based. As to conditions: HEK293, 18-24 hr incubation, normalized to DMSO control; for DC50: read-out: IKZF1 EC50; for Dmax: read-out: IKZF1 Dmax (maximum degradation at the highest concentration tested). The method, boiled down: (§1)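 Flp-In T-REx HEK293 pools stably expressing C-terminal HiBiT-tagged IKZF1 or IKZF2 were induced overnight with 1 μg/ml doxycycline. Cells were then treated with serially diluted compound for 18-24 hr at 37 °C and read by Nano-Glo lytic luminescence. Data were normalized to 0.5% DMSO as POC; EC50 and Dmax (maximum degradation at highest concentration tested) reported.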

The target of assay [2] is T2, IKZF2 (Homo sapiens, UniProt Q96SW2+Q9UKS7).
T2 construct: expressed in transfected cells
In words: HiBiT protein tagging assay, in vitro IKZF2 degradation (HEK293). It counts as cell-based. The note with it: HEK293, 18-24 hr incubation, normalized to DMSO control; for Dmax: HEK293, HiBiT assay, read-out: IKZF2 Dmax (maximum degradation at the highest concentration tested); for DC50: HiBiT assay, read-out: IKZF2 EC50. The procedure, abridged: as §1
On the technique in general: The HiBiT peptide binds its large partner to form an active luciferase.

Molecules are shown by their SMILES.

T1 sequence (Q13422 whole entry): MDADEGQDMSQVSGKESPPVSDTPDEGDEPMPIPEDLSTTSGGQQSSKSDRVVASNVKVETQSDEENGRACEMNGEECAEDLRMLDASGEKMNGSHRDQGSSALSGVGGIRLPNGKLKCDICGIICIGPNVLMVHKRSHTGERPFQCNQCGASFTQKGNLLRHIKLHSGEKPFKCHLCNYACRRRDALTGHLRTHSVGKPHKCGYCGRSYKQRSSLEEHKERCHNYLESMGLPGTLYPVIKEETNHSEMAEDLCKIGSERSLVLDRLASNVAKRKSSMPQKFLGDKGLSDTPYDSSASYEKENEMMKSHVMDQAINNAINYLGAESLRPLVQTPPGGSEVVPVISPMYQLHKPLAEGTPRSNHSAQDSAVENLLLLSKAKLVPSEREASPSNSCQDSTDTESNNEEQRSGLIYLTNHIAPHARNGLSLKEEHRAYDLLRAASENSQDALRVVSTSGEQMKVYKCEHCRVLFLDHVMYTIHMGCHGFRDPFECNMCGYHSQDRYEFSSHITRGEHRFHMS
T1 sequence (Q96SW2 whole entry): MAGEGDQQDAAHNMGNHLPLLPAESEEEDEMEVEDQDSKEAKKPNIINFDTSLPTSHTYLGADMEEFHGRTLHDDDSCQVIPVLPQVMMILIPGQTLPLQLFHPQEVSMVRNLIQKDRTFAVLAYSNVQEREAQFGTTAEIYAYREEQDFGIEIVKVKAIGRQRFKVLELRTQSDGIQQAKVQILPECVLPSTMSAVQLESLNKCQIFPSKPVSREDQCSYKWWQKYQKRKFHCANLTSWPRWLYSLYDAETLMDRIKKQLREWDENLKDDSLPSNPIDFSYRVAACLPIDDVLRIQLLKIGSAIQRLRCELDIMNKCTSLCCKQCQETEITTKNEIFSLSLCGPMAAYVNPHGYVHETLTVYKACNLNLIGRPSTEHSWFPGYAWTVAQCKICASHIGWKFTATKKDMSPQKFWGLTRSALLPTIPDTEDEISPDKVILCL
T1 sequence (Q16531 whole entry partner): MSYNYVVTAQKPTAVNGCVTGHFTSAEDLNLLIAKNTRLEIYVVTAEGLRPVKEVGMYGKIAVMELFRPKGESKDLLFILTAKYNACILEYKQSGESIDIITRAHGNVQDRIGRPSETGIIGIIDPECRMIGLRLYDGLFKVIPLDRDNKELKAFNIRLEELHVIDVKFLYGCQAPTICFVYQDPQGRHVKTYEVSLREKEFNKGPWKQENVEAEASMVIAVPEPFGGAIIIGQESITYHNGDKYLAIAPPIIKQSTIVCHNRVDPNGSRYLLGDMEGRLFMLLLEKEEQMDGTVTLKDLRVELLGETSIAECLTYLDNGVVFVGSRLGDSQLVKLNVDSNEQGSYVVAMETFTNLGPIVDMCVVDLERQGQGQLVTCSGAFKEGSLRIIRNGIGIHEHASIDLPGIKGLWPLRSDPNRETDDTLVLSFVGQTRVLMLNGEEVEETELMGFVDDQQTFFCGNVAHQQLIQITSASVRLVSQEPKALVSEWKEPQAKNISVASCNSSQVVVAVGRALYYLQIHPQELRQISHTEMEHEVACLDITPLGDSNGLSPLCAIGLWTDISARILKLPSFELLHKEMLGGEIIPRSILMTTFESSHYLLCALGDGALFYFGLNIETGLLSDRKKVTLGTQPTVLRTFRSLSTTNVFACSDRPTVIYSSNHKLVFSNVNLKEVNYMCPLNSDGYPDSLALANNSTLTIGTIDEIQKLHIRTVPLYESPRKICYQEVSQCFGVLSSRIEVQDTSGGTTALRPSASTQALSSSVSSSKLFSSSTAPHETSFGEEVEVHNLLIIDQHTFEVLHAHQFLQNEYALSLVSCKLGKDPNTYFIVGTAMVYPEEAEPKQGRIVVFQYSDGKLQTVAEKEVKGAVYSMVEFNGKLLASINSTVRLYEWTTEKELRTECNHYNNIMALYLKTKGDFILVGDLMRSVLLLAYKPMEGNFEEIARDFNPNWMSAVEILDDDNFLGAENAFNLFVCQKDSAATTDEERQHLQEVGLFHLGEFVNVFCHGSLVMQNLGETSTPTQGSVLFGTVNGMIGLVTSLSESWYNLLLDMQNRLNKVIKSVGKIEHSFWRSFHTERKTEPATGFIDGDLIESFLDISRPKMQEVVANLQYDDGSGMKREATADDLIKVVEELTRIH
T2 sequence (Q9UKS7 1-500 isoform Q9UKS7-2): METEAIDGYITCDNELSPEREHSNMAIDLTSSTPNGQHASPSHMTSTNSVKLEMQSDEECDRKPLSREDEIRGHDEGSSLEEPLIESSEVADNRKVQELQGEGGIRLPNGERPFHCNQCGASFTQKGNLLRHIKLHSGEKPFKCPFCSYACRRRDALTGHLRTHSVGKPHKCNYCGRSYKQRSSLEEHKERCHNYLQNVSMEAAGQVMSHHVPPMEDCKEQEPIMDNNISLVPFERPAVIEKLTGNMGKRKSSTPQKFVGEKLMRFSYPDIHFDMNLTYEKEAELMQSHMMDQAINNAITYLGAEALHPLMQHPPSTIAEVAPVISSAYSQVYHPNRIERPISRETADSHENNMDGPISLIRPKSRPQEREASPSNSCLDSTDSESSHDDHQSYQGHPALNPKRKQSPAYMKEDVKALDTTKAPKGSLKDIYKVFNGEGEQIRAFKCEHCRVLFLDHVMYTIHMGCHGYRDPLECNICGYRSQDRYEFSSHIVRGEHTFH
T2 sequence (Q96SW2 whole entry): as the sequence (Q96SW2 whole entry) above
T2 sequence (Q16531 whole entry partner): as the sequence (Q16531 whole entry partner) above

As for `O=C1CCC(N2Cc3cc(CN[C@@H]4CC5CCC4CC5)ccc3C2=O)C(=O)N1` (stereo partly drawn) [Example 94, 3-(5-((((R)-bicyclo[2.2.2]octan-2-yl)amino)methyl)-1-oxoisoindolin-2-yl)piperidine-2,6-dione], the DC50 in assay [1] was more than 10000 nM. Further, in assay [2], the Dmax is 55% and the DC50 was 178 nM.
The like results for `O=C1CCC(N2Cc3cc(CN[C@H]4CC5CCC4CC5)ccc3C2=O)C(=O)N1` (stereo partly drawn) [Example 95, 3-(5-((((S)-bicyclo[2.2.2]octan-2-yl)amino)methyl)-1-oxoisoindolin-2-yl)piperidine-2,6-dione] were, in that order, more than 10000 nM, 49% and 361 nM.
Regarding `NC(=O)C1CCCC(NCc2ccc3c(c2)CN(C2CCC(=O)NC2=O)C3=O)C1` (stereo not drawn) [Example 96, (1,3-cis)-3-(((2-(2,6-dioxopiperidin-3-yl)-1-oxoisoindolin-5-yl)methyl)amino)cyclohexane-1-carboxamide], the Dmax in assay [1] is 66%; in assay [2], 61%. The DC50 in assay [1] and in assay [2] was 3800 nM in each case.
As to `O=C1CCC(N2Cc3cc(CNC4CCCC(CO)C4)ccc3C2=O)C(=O)N1` (stereo not drawn) [Example 97, 3-(5-((((1,3-trans)-3-(hydroxymethyl)cyclohexyl)amino)methyl)-1-oxoisoindolin-2-yl)piperidine-2,6-dione], the Dmax worked out at 64% in assay [1] and 66% in assay [2]. The DC50 in assay [1] amounted to 5100 nM; in assay [2], 1800 nM.
In the case of `O=C1CCC(N2Cc3cc(CNC4CC5CNC4C5)ccc3C2=O)C(=O)N1` (stereo not drawn) [Example 98, 3-(5-((((1,4,6-cis)-2-azabicyclo[2.2.1]heptan-6-yl)amino)methyl)-1-oxoisoindolin-2-yl)piperidine-2,6-dione], in assay [1], the Dmax stood at 22% and the DC50 was found to be 1500 nM. In addition, in assay [2], the Dmax was 39% and the DC50 amounted to 1800 nM.
In the case of `O=C1CCC(N2Cc3cc(CN[C@@H]4CCCN(Cc5cccc(Cl)c5)C4)ccc3C2=O)C(=O)N1` (stereo partly drawn) [Example 99, 3-(5-((((R)-1-(3-chlorobenzyl)piperidin-3-yl)amino)methyl)-1-oxoisoindolin-2-yl)piperidine-2,6-dione], in assay [1], the Dmax worked out at 97% and the DC50 stood at 2 nM. Also, in assay [2], the Dmax was determined as 97% and the DC50 was found to be 11 nM.
With `O=C1CCC(N2Cc3cc(CN[C@@H]4CCCN(Cc5ccc(Cl)cc5)C4)ccc3C2=O)C(=O)N1` (stereo partly drawn) [Example 100, 3-(5-((((R)-1-(4-chlorobenzyl)piperidin-3-yl)amino)methyl)-1-oxoisoindolin-2-yl)piperidine-2,6-dione], in assay [1], the Dmax came to 98% and the DC50 was determined as 1 nM. In assay [2], the Dmax came to 97% and the DC50 stood at 6 nM.
For the molecule `C[C@@H]1CCCC[C@H]1NCc1ccc2c(c1)CN(C1CCC(=O)NC1=O)C2=O` (some centres unmarked) [Example 101], the results for the Dmax in assay [1] and in assay [2] were 23% and 71%, respectively. Moreover, the values for the DC50 in assay [1] and in assay [2] were 107 nM and 157 nM, respectively.
For `C[C@H]1CCCC[C@@H]1NCc1ccc2c(c1)CN(C1CCC(=O)NC1=O)C2=O` (some centres unmarked) [Example 102] the same measures were 23%, 69%, 164 nM and 220 nM.
The like results for `CC1(c2ccccc2)CCC(NCc2ccc3c(c2)CN(C2CCC(=O)NC2=O)C3=O)CC1` (centres unmarked) [Example 103, 3-(5-(((4-methyl-4-phenylcyclohexyl)amino)methyl)-1-oxoisoindolin-2-yl)piperidine-2,6-dione] were, in that order, 97%, 91%, 3 nM and 23 nM.
The like results for `O=C1CCC(N2Cc3cc(CNC4CCC(Oc5ccccc5)CC4)ccc3C2=O)C(=O)N1` (centres unmarked) [Example 104] were, in that order, 82%, 72%, 23 nM and 42 nM.
As to `O=C1CCC(N2Cc3cc(CNC4CC5CCC(C5)C4)ccc3C2=O)C(=O)N1` (centres unmarked) [Example 105], in assay [1], the Dmax stood at 75% and the DC50 stood at 74 nM. In assay [2], the Dmax was 92% and the DC50 is 43 nM.
Take `C[C@@H]1[C@H](NCc2ccc3c(c2)CN(C2CCC(=O)NC2=O)C3=O)CCCN1Cc1ccccc1` (stereo partly drawn) [Example 106, 3-(5-((((2R,3R)-1-benzyl-2-methylpiperidin-3-yl)amino)methyl)-1-oxoisoindolin-2-yl)piperidine-2,6-dione]: the Dmax in assay [1] is 86%; in assay [2], 43%. For the same molecule, the DC50 was 93 nM in assay [1] and 381 nM in assay [2].
The like results for `CO[C@H]1CCCC[C@H]1NCc1ccc2c(c1)CN(C1CCC(=O)NC1=O)C2=O` (some centres unmarked) [Example 107] were, in that order, 38%, 28%, 158 nM and 265 nM.
The like results for `CO[C@@H]1CCCC[C@@H]1NCc1ccc2c(c1)CN(C1CCC(=O)NC1=O)C2=O` (some centres unmarked) [Example 108] were, in that order, 89%, 96%, 26 nM and 16 nM.
The like results for `O=C1CCC(N2Cc3cc(CNC4CC(c5ccccc5)CN(Cc5ccccc5)C4)ccc3C2=O)C(=O)N1` (centres unmarked) [Example 109, 3-(5-(((1-benzyl-5-phenylpiperidin-3-yl)amino)methyl)-1-oxoisoindolin-2-yl)piperidine-2,6-dione] were, in that order, 71%, 30%, 45 nM and 121 nM.
With `O=C1CCC(N2Cc3cc(CN[C@H]4CCC[C@@H](Oc5ccccc5)C4)ccc3C2=O)C(=O)N1` (some centres unmarked) [Example 110], the Dmax in assay [1] stood at 55%; in assay [2], 72%. The results for the DC50 in assay [1] and in assay [2] were 105 nM and 118 nM, respectively.
With `O=C1CCC(N2Cc3cc(CN[C@H]4CCC[C@@H](OCc5ccccc5)C4)ccc3C2=O)C(=O)N1` (some centres unmarked) [Example 111], the Dmax in assay [1] turned out to be 61%; in assay [2] it was 56%. For the same molecule, the DC50 stood at 85 nM in assay [1] and 206 nM in assay [2].
As for `O=C1CCC(N2Cc3cc(CN[C@@H]4CCC[C@H](OCc5ccccc5)C4)ccc3C2=O)C(=O)N1` (some centres unmarked) [Example 112], in assay [1], the Dmax is 95% and the DC50 came out at 7 nM. Moreover, in assay [2], the Dmax was found to be 90% and the DC50 came out at 75 nM.
For `CC1(NCc2ccc3c(c2)CN(C2CCC(=O)NC2=O)C3=O)CCCCC1` (centres unmarked) [Example 113] the same measures were 27%, 96 nM, 95% and 49 nM.
For `O=C1CCC(N2Cc3cc(CNC4CCC5(CCc6ccccc65)CC4)ccc3C2=O)C(=O)N1` (centres unmarked) [Example 114, 3-(5-(((2′,3′-dihydrospiro[cyclohexane-1,1′-inden]-4-yl)amino)methyl)-1-oxoisoindolin-2-yl)piperidine-2,6-dione], in assay [1], the Dmax turned out to be 62% and the DC50 came out at 52 nM. Further, in assay [2], the Dmax was 78% and the DC50 worked out at 68 nM.
The like results for `O=C1CCC(N2Cc3cc(CN[C@@H]4CCC[C@H](Cc5ccccc5)C4)ccc3C2=O)C(=O)N1` (some centres unmarked) [Example 115] were, in that order, 87%, 4 nM, 97% and 8 nM.
